Measured values from patent US11053204B2, “Pyrimidinyloxy benzene derivatives as herbicides” (FMC Corporation, priority 2015, dated 2021).

Assays:
Assay type in all cases: in vivo
kochia (Kochia scoparia) = assay: Test C preemergence, plant response rating
[1] = system: pigweed, palmer (palmer pigweed, Amaranthus palmeri); assay: Test C preemergence, plant response rating
[2] = system: wild poinsettia (Euphorbia heterophylla); assay: Test C preemergence, plant response rating
[3] = system: oat, wild (wild oat Avena fatua); assay: Test C preemergence, plant response rating
[4] = system: windgrass (Apera spica-venti); assay: Test C preemergence, plant response rating
[5] = system: geranium, cutleaf (cutleaf geranium, Geranium dissectum); assay: Test C postemergence, plant response rating; conditions: for Plant response rating, Geranium, Cutleaf: scale 0 to 100; for Geranium, Cutleaf plant response rating: scale 0 to 100 (0 no effect, 100 complete control)
How it was run: (§1)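 Preemergence: seeds sown in loam–sand blend or silt loam and sprayed with test chemicals in a non-phytotoxic surfactant-containing solvent. Postemergence: potted plants at 2–18 cm (1–4-leaf stage) sprayed with the same formulation. After 13–15 d in greenhouse, visual rating versus controls on 0 (no effect) to 100 (complete control) scale.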

[6] = system: buckwheat, wild (wild buckwheat, Polygonum convolvulus); assay: Test C postemergence, plant response rating; conditions: for Plant response rating, Buckwheat, Wild: scale 0 to 100; for Buckwheat, Wild plant response rating: scale 0 to 100 (0 no effect, 100 complete control)
How it was run: as §1

[7] = system: nightshade (eastern black nightshade, Solanum ptycanthum); assay: Test C postemergence, plant response rating; conditions: for Plant response rating, Nightshade: scale 0 to 100; for Nightshade plant response rating: scale 0 to 100 (0 no effect, 100 complete control)
How it was run: as §1

[8] = system: Canada thistle (Cirsium arvense); assay: Test C postemergence, plant response rating; conditions: for Plant response rating, Canada Thistle: scale 0 to 100; for Canada Thistle plant response rating: scale 0 to 100 (0 no effect, 100 complete control)
How it was run: as §1

[9] = system: field poppy (Papaver rhoeas); assay: Test C postemergence, plant response rating; conditions: for Plant response rating, Field Poppy: scale 0 to 100; for Field Poppy plant response rating: scale 0 to 100 (0 no effect, 100 complete control)
How it was run: as §1

[10] = system: johnsongrass (Sorghum halepense); assay: Test C postemergence, plant response rating; conditions: for Plant response rating, Johnsongrass: scale 0 to 100; for Johnsongrass plant response rating: scale 0 to 100 (0 no effect, 100 complete control)
How it was run: as §1

[11] = system: pigweed, palmer (palmer pigweed, Amaranthus palmeri); assay: Test C postemergence, plant response rating; conditions: for Plant response rating, Pigweed, Palmer: scale 0 to 100; for Pigweed, Palmer plant response rating: scale 0 to 100 (0 no effect, 100 complete control)
How it was run: as §1

[12] = system: windgrass (Apera spica-venti); assay: Test C postemergence, plant response rating; conditions: for Plant response rating, Windgrass: scale 0 to 100; for Windgrass plant response rating: scale 0 to 100 (0 no effect, 100 complete control)
How it was run: as §1

[13] = system: field violet (Viola arvensis); assay: Test C postemergence, plant response rating; conditions: for Plant response rating, Field Violet: scale 0 to 100; for Field Violet plant response rating: scale 0 to 100 (0 no effect, 100 complete control)
How it was run: as §1

[14] = system: speedwell (bird's-eye speedwell, Veronica persica); assay: Test C postemergence, plant response rating; conditions: for Plant response rating, Speedwell: scale 0 to 100; for Speedwell plant response rating: scale 0 to 100 (0 no effect, 100 complete control)
How it was run: as §1

[15] = system: wild poinsettia (Euphorbia heterophylla); assay: Test C postemergence, plant response rating; conditions: for Plant response rating, Poinsettia, Wild: scale 0 to 100; for Poinsettia, Wild plant response rating: scale 0 to 100 (0 no effect, 100 complete control)
How it was run: as §1

[16] = system: surinam grass (Brachiaria decumbens); assay: Test C postemergence, plant response rating; conditions: for Plant response rating, Surinam Grass: scale 0 to 100; for Surinam Grass plant response rating: scale 0 to 100 (0 no effect, 100 complete control)
How it was run: as §1

[17] = system: johnsongrass (Sorghum halepense); assay: Test C preemergence, plant response rating

CCCC(=O)c1c(Br)cccc1Oc1ncc(Cl)cn1 [Compound 75]
Plant response rating, Kochia (kochia (Kochia scoparia); 16 g ai/ha, scale 0 to 100): 0 | Plant response rating, Kochia (kochia (Kochia scoparia); 31 g ai/ha, scale 0 to 100): 50 | Plant response rating, Kochia (kochia (Kochia scoparia); 62 g ai/ha, scale 0 to 100): 90 | Plant response rating, Kochia (kochia (Kochia scoparia); 125 g ai/ha, scale of 0 to 100): 100 | Plant response rating, Pigweed, Palmer ([1]; 16 g ai/ha, scale 0 to 100): 70 | Plant response rating, Pigweed, Palmer ([1]; 31 g ai/ha, scale 0 to 100): 100 | Plant response rating, Pigweed, Palmer ([1]; 62 g ai/ha, scale 0 to 100): 95 | Plant response rating, Pigweed, Palmer ([1]; 125 g ai/ha, scale of 0 to 100): 100 | Plant response rating, Poinsettia, Wild ([2]; 16 g ai/ha, scale 0 to 100): 10 | Plant response rating, Poinsettia, Wild ([2]; 31 g ai/ha, scale 0 to 100): 40 | Plant response rating, Poinsettia, Wild ([2]; 62 g ai/ha, scale 0 to 100): 35 | Plant response rating, Poinsettia, Wild ([2]; 125 g ai/ha, scale of 0 to 100): 35 | Plant response rating, Oat, Wild ([3]; 16 g ai/ha, scale 0 to 100): 0 | Plant response rating, Oat, Wild ([3]; 31 g ai/ha, scale 0 to 100): 0 | Plant response rating, Oat, Wild ([3]; 62 g ai/ha, scale 0 to 100): 0 | Plant response rating, Oat, Wild ([3]; 125 g ai/ha, scale of 0 to 100): 5 | Plant response rating, Windgrass ([4]; 16 g ai/ha, scale 0 to 100): 5 | Plant response rating, Windgrass ([4]; 31 g ai/ha, scale 0 to 100): 45 | Plant response rating, Windgrass ([4]; 62 g ai/ha, scale 0 to 100): 100 | Plant response rating, Windgrass ([4]; 125 g ai/ha, scale of 0 to 100): 100 | Plant response rating, Geranium, Cutleaf ([5]; 16 g ai/ha): 30 | Plant response rating, Geranium, Cutleaf ([5]; 31 g ai/ha): 40 | Geranium, Cutleaf plant response rating ([5]; 62 g ai/ha): 35 | Geranium, Cutleaf plant response rating ([5]; 125 g ai/ha): 65 | Plant response rating, Buckwheat, Wild ([6]; 16 g ai/ha): 45 | Plant response rating, Buckwheat, Wild ([6]; 31 g ai/ha): 60 | Buckwheat, Wild plant response rating ([6]; 62 g ai/ha): 80 | Buckwheat, Wild plant response rating ([6]; 125 g ai/ha): 85 | Plant response rating, Nightshade ([7]; 16 g ai/ha): 75 | Plant response rating, Nightshade ([7]; 31 g ai/ha): 80 | Nightshade plant response rating ([7]; 62 g ai/ha): 85 | Nightshade plant response rating ([7]; 125 g ai/ha): 98 | Plant response rating, Canada Thistle ([8]; 16 g ai/ha): 70 | Plant response rating, Canada Thistle ([8]; 31 g ai/ha): 75 | Canada Thistle plant response rating ([8]; 62 g ai/ha): 75 | Canada Thistle plant response rating ([8]; 125 g ai/ha): 100 | Plant response rating, Field Poppy ([9]; 16 g ai/ha): 70 | Plant response rating, Field Poppy ([9]; 31 g ai/ha): 80 | Field Poppy plant response rating ([9]; 62 g ai/ha): 80 | Field Poppy plant response rating ([9]; 125 g ai/ha): 100 | Plant response rating, Johnsongrass ([10]; 16 g ai/ha): 5 | Plant response rating, Johnsongrass ([10]; 31 g ai/ha): 10 | Johnsongrass plant response rating ([10]; 62 g ai/ha): 10 | Johnsongrass plant response rating ([10]; 125 g ai/ha): 70 | Plant response rating, Pigweed, Palmer ([11]; 16 g ai/ha): 75 | Plant response rating, Pigweed, Palmer ([11]; 31 g ai/ha): 90 | Pigweed, Palmer plant response rating ([11]; 62 g ai/ha): 95 | Pigweed, Palmer plant response rating ([11]; 125 g ai/ha): 85 | Plant response rating, Windgrass ([12]; 16 g ai/ha): 0 | Plant response rating, Windgrass ([12]; 31 g ai/ha): 5 | Windgrass plant response rating ([12]; 62 g ai/ha): 10 | Windgrass plant response rating ([12]; 125 g ai/ha): 5 | Plant response rating, Field Violet ([13]; 16 g ai/ha): 80 | Plant response rating, Field Violet ([13]; 31 g ai/ha): 98 | Field Violet plant response rating ([13]; 62 g ai/ha): 98 | Field Violet plant response rating ([13]; 125 g ai/ha): 100 | Plant response rating, Speedwell ([14]; 16 g ai/ha): 90 | Plant response rating, Speedwell ([14]; 31 g ai/ha): 95 | Speedwell plant response rating ([14]; 62 g ai/ha): 100 | Speedwell plant response rating ([14]; 125 g ai/ha): 100 | Plant response rating, Poinsettia, Wild ([15]; 16 g ai/ha): 65 | Plant response rating, Poinsettia, Wild ([15]; 31 g ai/ha): 70 | Poinsettia, Wild plant response rating ([15]; 62 g ai/ha): 80 | Poinsettia, Wild plant response rating ([15]; 125 g ai/ha): 80 | Plant response rating, Surinam Grass ([16]; 16 g ai/ha): 10 | Plant response rating, Surinam Grass ([16]; 31 g ai/ha): 15 | Surinam Grass plant response rating ([16]; 62 g ai/ha): 20 | Surinam Grass plant response rating ([16]; 125 g ai/ha): 20 | Plant response rating, Johnsongrass ([17]; 16 g ai/ha, scale 0 to 100): 0 | Plant response rating, Johnsongrass ([17]; 31 g ai/ha, scale 0 to 100): 0 | Plant response rating, Johnsongrass ([17]; 62 g ai/ha, scale 0 to 100): 30 | Plant response rating, Johnsongrass ([17]; 125 g ai/ha, scale of 0 to 100): 70
